Entries after “also recorded” stand apart in the source; their conditions may differ. Where two headings read alike, the source gives them in different places.
Assays:
HT29 (colon carcinoma) = experiment: MTT in vitro growth inhibition assay, HT29; type: cell-based; settings: Homo sapiens; for inhibition at 25 µM: HT-29, 25 µM of drug, 72 h, read-out: Percentage of Cell Growth Inhibition HT29; for GI50: HT-29, 72 h drug exposure
U87 (glioblastoma) = experiment: MTT in vitro growth inhibition assay, U87; type: cell-based; settings: for inhibition at 25 µM: 25 µM of drug, 72 h, read-out: Percentage of Cell Growth Inhibition U87; for GI50: 72 h drug exposure
MCF-7 (breast carcinoma) = experiment: MTT in vitro growth inhibition assay, MCF-7; type: cell-based; settings: Homo sapiens; for inhibition at 25 µM: MCF7, 25 µM of drug, 72 h, read-out: Percentage of Cell Growth Inhibition MCF-7; for GI50: MCF7, 72 h drug exposure
[1] = system: A2780 (ovarian carcinoma); experiment: MTT in vitro growth inhibition assay, A2780; type: cell-based; settings: Homo sapiens; for inhibition at 25 µM: 25 µM of drug, 72 h, read-out: Percentage of Cell Growth Inhibition A2780; for GI50: 72 h drug exposure
H460 (lung carcinoma) = experiment: MTT in vitro growth inhibition assay, H460; type: cell-based; settings: Homo sapiens; for inhibition at 25 µM: NCI-H460, 25 µM of drug, 72 h, read-out: Percentage of Cell Growth Inhibition H460; for GI50: NCI-H460, 72 h drug exposure
A431 (skin carcinoma) = experiment: MTT in vitro growth inhibition assay, A431; type: cell-based; settings: Homo sapiens; for inhibition at 25 µM: A-431, 25 µM of drug, 72 h, read-out: Percentage of Cell Growth Inhibition A431; for GI50: A-431, 72 h, 72 h drug exposure
[2] = system: Du145 (prostate carcinoma); experiment: MTT in vitro growth inhibition assay, Du145; type: cell-based; settings: Homo sapiens; for inhibition at 25 µM: DU-145, 25 µM of drug, 72 h, read-out: Percentage of Cell Growth Inhibition Du145; for GI50: DU-145, 72 h, 72 h drug exposure
BE2-C (neuroblastoma) = experiment: MTT in vitro growth inhibition assay, BE2-C; type: cell-based; settings: Homo sapiens, BE(2)-C, 72 h; for inhibition at 25 µM: 25 µM of drug, read-out: Percentage of Cell Growth Inhibition BE2-C; for GI50: 72 h drug exposure
SJ-G2 (glioblastoma) = experiment: MTT in vitro growth inhibition assay, SJ-G2; type: cell-based; settings: for inhibition at 25 µM: 25 µM of drug, 72 h, read-out: Percentage of Cell Growth Inhibition SJ-G2; for GI50: 72 h drug exposure
[3] = system: MIA (pancreatic carcinoma); experiment: MTT in vitro growth inhibition assay, MIA; type: cell-based; settings: for inhibition at 25 µM: 25 µM of drug, 72 h, read-out: Percentage of Cell Growth Inhibition MIA; for GI50: 72 h drug exposure
[4] = system: SMA (spontaneous murine astrocytoma); experiment: MTT in vitro growth inhibition assay, SMA; type: cell-based; settings: Mus musculus; for inhibition at 25 µM: 25 µM of drug, 72 h, read-out: Percentage of Cell Growth Inhibition SMA; for GI50: 72 h drug exposure
[5] = system: MCF10A (normal breast cell line); experiment: MTT in vitro growth inhibition assay, MCF10A; type: cell-based; settings: Homo sapiens, MCF-10A; for inhibition at 25 µM: 25 µM of drug, 72 h, read-out: Percentage of Cell Growth Inhibition MCF10A; for GI50: normal breast cell line, 72 h drug exposure
[6] = system: panel of 11 cancer cell lines and one normal cell line; experiment: Cytotoxicity across the whole cell line panel (MTT); type: cell-based; settings: for activity at the initial screening concentration (to proceed to GI50 determination): 25 µM single dose
Description: With the desired bolinaquinone analogues 12–43 in hand, we examined their cytotoxicity against a panel of 11 tumour cell lines: HT29 (colon carcinoma), U87 and SJ-G2 (glioblastoma), MCF-7 (breast carcinoma), A2780 (ovarian carcinoma), H460 (lung carcinoma), A431 (skin carcinoma), Du145 (prostate carcinoma), BE2-C (neuroblastoma), MIA (pancreatic carcinoma), SMA (spontaneous murine astrocytoma) and a normal breast cell line (MCF10A). The inclusion of the MCF-10A cell line allowed a determination of a crude measure of relative toxicity while noting that the ultimate arbiter of toxicity requires in vivo evaluation. All analogues were initially screened at a 25 µM drug concentration.
Stock solutions were prepared as follows and stored at −20°C: drugs were stored as 40 mM solutions in DMSO. All cell lines were cultured in a humidified atmosphere 5% CO2 at 37°C. The cancer cell lines were maintained in Dulbecco's modified Eagle's medium (DMEM) (Trace Biosciences, Australia) supplemented with 10% fetal bovine serum, 10 mM sodium bicarbonate, penicillin (100 IU ml^−1), streptomycin (100 µg ml^−1) and glutamine (4 mM). The non-cancer MCF10A cell line was cultured in DMEM:F12 (1 : 1) cell culture media, 5% heat-inactivated horse serum, supplemented with penicillin (50 IU ml^−1), streptomycin (50 µg ml^−1), 20 mM Hepes, L-glutamine (2 mM), epidermal growth factor (20 ng ml^−1), hydrocortisone (500 ng ml^−1), cholera toxin (100 ng ml^−1) and insulin (10 ug ml^−1).
Cells in logarithmic growth were transferred to 96-well plates. Cytotoxicity was determined by plating cells in duplicate in 100 µl medium at a density of 2500–4000 cells per well. On day 0 (24 h after plating), when the cells were in logarithmic growth, 100 μl of medium with or without the test agent was added to each well. After 72 h, drug exposure growth inhibitory effects were evaluated using the MTT (3-[4,5-dimethylthiazol-2-yl]-2,5-diphenyl-tetrazolium bromide) assay and the absorbance read at 540 nm. Percentage growth inhibition was determined at a fixed drug concentration of 25 µM. A value of 100% is indicative of complete cell growth inhibition. Those analogues showing appreciable percentage growth inhibition underwent further dose–response analysis allowing for the calculation of a GI50 value. This value is the drug concentration at which cell growth is 50% inhibited based on the difference between the optical density values on day 0 and those at the end of drug exposure.

[7] = average over the cell line panel, read-out: average GI50

SMILES | inhibition at 25 µM (HT29 (colon carcinoma)) | inhibition at 25 µM (U87 (glioblastoma)) | inhibition at 25 µM (MCF-7 (breast carcinoma)) | inhibition at 25 µM [1] | inhibition at 25 µM (H460 (lung carcinoma)) | inhibition at 25 µM (A431 (skin carcinoma)) | inhibition at 25 µM [2] | inhibition at 25 µM (BE2-C (neuroblastoma)) | inhibition at 25 µM (SJ-G2 (glioblastoma)) | inhibition at 25 µM [3] | inhibition at 25 µM [4] | inhibition at 25 µM [5] | activity at the initial screening concentration (to proceed to GI50 determination) [6] | melting point | GI50 (HT29 (colon carcinoma)) | GI50 (U87 (glioblastoma)) | GI50 (MCF-7 (breast carcinoma)) | GI50 [1] | GI50 (H460 (lung carcinoma)) | GI50 (A431 (skin carcinoma)) | further results
COC1=CC(=O)C(OC)=C(c2ccc3ccccc3c2)C1=O [compound 24, 2,5-Dimethoxy-3-(naphthalene-3-yl)cycloheza-2,5-diene-1,4-dione] | < 10% | 15 ± 4% | 22 ± 6% | 54 ± 15% | 12 ± 4% | < 10% | 11% | 65 ± 20% | 20 ± 4% | < 10% | 31 ± 10% | 13 ± 6% | not sufficiently active; also recorded: inactive | 137 to 139 °C | – | – | – | – | – | – | –
COC1=CC(=O)C(OC)=C(c2cc3ccccc3s2)C1=O [compound 26, 3-(Benzo[b]thiophen-2-yl)-2,5-dimethoxycyclohexa-2,5-diene-1,4-dione] | 70 ± 2% | 42 ± 5% | 79 ± 4% | 61 ± 1% | 49 ± 8% | 75 ± 1% | 66 ± 5% | 72 ± 3% | 42 ± 3% | 59 ± 2% | 60 ± 3% | 65 ± 4% | not sufficiently active; also recorded: did not proceed to GI50 determination | 205 to 207 °C | – | – | – | – | – | – | –
COC1=CC(=O)C(OC)=C(c2ccc(-c3ccccc3)cc2)C1=O [compound 27, 3-Biphenyl-4-yl-2,5-dimethoxycyclohexa-2,5-diene-1,4-dione] | 76 ± 2% | 54 ± 5% | 65 ± 2% | 70 ± 3% | 48 ± 3% | 78 ± 1% | 57 ± 7% | 98 ± 4% | 38 ± 3% | 70 ± 1% | 61 ± 6% | 63 ± 1% | – | 178 to 180 °C | 4.3 ± 0.1 µM | 19 ± 2.3 µM | 4 ± 0.1 µM | 4.3 ± 0.1 µM | 19 ± 2.5 µM | 5.7 ± 0.45 µM | GI50 [2]: 4.1 ± 0.1 µM; GI50 (BE2-C (neuroblastoma)): 4.1 ± 0.1 µM; GI50 (SJ-G2 (glioblastoma)): 31 ± 0.9 µM; GI50 [3]: 4.5 ± 0.13 µM; GI50 [4]: 19 ± 4.2 µM; GI50 [5]: 3.9 ± 0.1 µM; GI50 [6, 7]: 10.2 µM; GI50 ([6]; span over the cell line panel, read-out: GI50 values across the cell lines examined (range)): 3.9 to 19 µM
COC1=CC(=O)C(OC)=C(c2cccc(-c3ccccc3)c2)C1=O [compound 28, 3-Biphenyl-3-yl-2,5-dimethoxycyclohexa-2,5-diene-1,4-dione] | 16 ± 2% | 12 ± 9% | 27 ± 1% | 52 ± 17% | 12 ± 5% | < 10% | 12 ± 1% | 59 ± 23% | 18 ± 3% | < 10% | 36 ± 8% | < 10% | not sufficiently active; also recorded: did not proceed to GI50 determination | 172 to 174 °C | – | – | – | – | – | – | cytotoxicity spectrum across the panel [6]: broad-spectrum active
CCCNC1=CC(=O)C(NCCC)=C(c2ccccc2-c2ccccc2)C1=O [compound 41, 3-(Biaryl-2-yl)-2,5-bis-(propylamino)cyclohexa-2,5-diene-1,4-dione] | 75 ± 2% | 82 ± 3% | 70 ± 3% | 68 ± 2% | 62 ± 1% | 90 ± 1% | 71 ± 2% | 74 ± 7% | 60 ± 2% | 76 ± 1% | 68 ± 6% | 83 ± 2% | sufficient activity | 177 to 179 °C | 1.9 µM | 5.1 ± 1 µM | 2 ± 0.1 µM | 2 ± 0.1 µM | 2.3 ± 0.1 µM | 2 ± 0.1 µM | GI50 [2]: 1.9 ± 0.1 µM; GI50 (BE2-C (neuroblastoma)): 1.9 µM; GI50 (SJ-G2 (glioblastoma)): 3.5 ± 1 µM; GI50 [3]: 1.9 µM; GI50 [4]: 3.3 ± 1 µM; GI50 [5]: 1.7 ± 0.2 µM; potency enhancement over parent analogue ([6]; 41 vs parent 29, 43 vs parent 33, on introduction of amine substituents): greater than or equal to 20 fold; GI50 [6, 7]: 2.5 µM

— article PMC5936891, “A focused library synthesis and cytotoxicity of quinones derived from the natural product bolinaquinone” (Royal Society Open Science, 2018)
